Measurements taken from patent US8992982B2, “Formulation of indomethacin” (Iceutica Pty Ltd., priority 2009, dated 2015).

Assays:
[1] = system: pain after surgical removal of impacted third molars; assay: Phase 2 dental pain study: pain relief, 5-point categorical scale (TOTPAR, pain relief score, peak pain relief, time to peak pain relief); format: in vivo, human; details: for Pain relief score A Little (1), % / Pain relief score None (0), % / Pain relief score Some (2), % / Pain relief score A Lot (3), % / Pain relief score Complete (4), %: 400 mg; for TOTPAR-8, LS mean difference vs placebo: treatment - placebo
Experimental: This was a phase-2, multicenter, randomized, double-blind, single-dose, parallel-group, active- and placebo-controlled study to evaluate the efficacy and safety of Indomethacin Nanoformulation Capsules (20 mg and 40 mg) in subjects with postoperative dental pain.
On Day 1, eligible subjects underwent extraction of 2 or more third molars, at least 1 of which had to be a fully or partially bone-impacted mandibular molar. If only 2 molars were removed, then they had to be ipsilateral.
Subjects assessed their baseline pain intensity (VAS) before receiving study drug (predose, Time 0) and their pain intensity (VAS) and pain relief (5-point categorical scale) at 15, 30, and 45 minutes and 1, 1.5, 2, 3, 4, 5, 6, 7, and 8 hours after Time 0 and immediately before the first dose of rescue medication. The 2-stopwatch method was used to record the time to perceptible and time to meaningful pain relief, respectively. Acetaminophen (1000 mg) was permitted as the initial rescue medication. Subjects were encouraged to wait at least 60 minutes after receiving study drug before taking rescue medication. […] Other restrictions included the following: no alcohol use from 24 hours before surgery until discharge on Day 1; nothing by mouth (NPO) from midnight before surgery until 1 hour after surgery; clear liquids only from 1 hour after surgery until 1 hour after dosing; and advancement of diet 1 hour after dosing according to standard practice.
The primary efficacy endpoint was the sum of total pain relief (TOTPAR) over 0 to 8 hours (TOTPAR-8) after Time 0. The TOTPAR was calculated using the pain relief score (5-point categorical scale) at each follow-up time point weighted (multiplied) using the amount of time since the prior assessment.
(§1) The secondary efficacy endpoints were as follows: • TOTPAR over 0 to 4 hours (TOTPAR-4) after Time 0 • Visual Analogue Scale (VAS) pain intensity difference (VASPID) at each scheduled time point after Time 0 • Time to onset of analgesia (measured as time to perceptible pain relief confirmed by meaningful pain relief) • VAS pain intensity score at each scheduled time point • VAS summed pain intensity difference (VASSPID) over 0 to 4 hours (VASSPID-4) and over 0 to 8 hours (VASSPID-8) after Time 0 • Pain relief score at each scheduled time point after Time 0 • Peak pain relief • Time to peak pain relief • Time to first perceptible pain relief • Time to meaningful pain relief • Proportion of subjects using rescue medication • Time to first use of rescue medication (duration of analgesia) • Patient's global evaluation of study drug Safety:
The null hypothesis was that TOTPAR over 0 to 8 hours after Time 0 (TOTPAR-8) for placebo would be equal to TOTPAR-8 for 40-mg Indomethacin Nanoformulation Capsules. The null hypothesis was analyzed using analysis of covariance (ANCOVA) models, which included treatment effect and significant covariates. The effect of potential covariates, such as sex, baseline pain intensity, and surgical trauma rating, were assessed using appropriate ANCOVA models. The analysis was based on a 2-sided test at the significance level of 0.05.
The least squares (LS) mean and 95% confidence interval (CI) for each treatment regimen, the mean (LS mean) difference between the 2 treatments, and the associated P value and 95% CI for the mean difference were computed from the ANCOVA model. This analysis utilized primarily the ITT population, and sensitivity analysis utilized the PP population.
Other comparisons between the treatment regimens, including 20-mg Indomethacin Nanoformulation Capsules versus placebo and 400-mg celecoxib capsules versus placebo, were considered secondary but also utilized the ITT population. The primary efficacy variable was also summarized by site, but no P values or statistical tests for site were computed.
Each efficacy endpoint was summarized descriptively by treatment group. […]

[2] = system: pain after surgical removal of impacted third molars; assay: Phase 2 dental pain study: patient's global evaluation of study drug; format: in vivo, human; details: 400 mg; ITT
Experimental: as §1
For ordinal secondary endpoints such as pain relief at each scheduled time point, peak pain relief, and global evaluation of study drug, descriptive summaries including the number and percentage of subjects within each category were provided for each treatment group. Nominal P values from Cochran-Mantel-Haenszel tests comparing the placebo group with other treatment groups were provided, but no formal statistical inferences were drawn on the basis of these tests.

SMILES: Cc1ccc(-c2cc(C(F)(F)F)nn2-c2ccc(S(N)(=O)=O)cc2)cc1 [Celecoxib]
- Pain relief score A Little (1), % ([1]; 15 minutes, ITT): (21.6) %
- Pain relief score None (0), % ([1]; 15 minutes, ITT): (74.5) %
- Pain relief score Some (2), % ([1]; 15 minutes, ITT): (3.9) %
- Pain relief score A Little (1), % ([1]; 30 minutes, ITT): (41.2) %
- Pain relief score A Lot (3), % ([1]; 30 minutes, ITT): (3.9) %
- Pain relief score None (0), % ([1]; 30 minutes, ITT): (51.0) %
- Pain relief score Some (2), % ([1]; 30 minutes, ITT): (3.9) %
- Pain relief score A Little (1), % ([1]; 45 minutes, ITT): (37.3) %
- Pain relief score A Lot (3), % ([1]; 45 minutes, ITT): (13.7) %
- Pain relief score Complete (4), % ([1]; 45 minutes, ITT): (2.0) %
- Pain relief score None (0), % ([1]; 45 minutes, ITT): (27.5) %
- Pain relief score Some (2), % ([1]; 45 minutes, ITT): (19.6) %
- Pain relief score A Little (1), % ([1]; 1 hour, ITT): (31.4) %
- Pain relief score A Lot (3), % ([1]; 1 hour, ITT): 25.5%
- Pain relief score Complete (4), % ([1]; 1 hour, ITT): (3.9) %
- Pain relief score None (0), % ([1]; 1 hour, ITT): (15.7) %
- Pain relief score Some (2), % ([1]; 1 hour, ITT): (23.5) %
- Pain relief score A Little (1), % ([1]; 2 hours, ITT): (13.7) %
- Pain relief score A Lot (3), % ([1]; 2 hours, ITT): (49.0) %
- Pain relief score Complete (4), % ([1]; 2 hours, ITT): (5.9) %
- Pain relief score None (0), % ([1]; 2 hours, ITT): (17.6) %
- Pain relief score Some (2), % ([1]; 2 hours, ITT): (13.7) %
- Pain relief score A Little (1), % ([1]; 3 hours, ITT): (5.9) %
- Pain relief score A Lot (3), % ([1]; 3 hours, ITT): (51.0) %
- Pain relief score Complete (4), % ([1]; 3 hours, ITT): (5.9) %
- Pain relief score None (0), % ([1]; 3 hours, ITT): (21.6) %
- Pain relief score Some (2), % ([1]; 3 hours, ITT): (15.7) %
- Pain relief score A Little (1), % ([1]; 4 hours, ITT): (7.8) %
- Pain relief score A Lot (3), % ([1]; 4 hours, ITT): (49.0) %
- Pain relief score Complete (4), % ([1]; 4 hours, ITT): (9.8) %
- Pain relief score None (0), % ([1]; 4 hours, ITT): (27.5) %
- Pain relief score Some (2), % ([1]; 4 hours, ITT): (5.9) %
- Pain relief score A Little (1), % ([1]; 5 hours, ITT): (3.9) %
- Pain relief score A Lot (3), % ([1]; 5 hours, ITT): (43.1) %
- Pain relief score Complete (4), % ([1]; 5 hours, ITT): (11.8) %
- Pain relief score None (0), % ([1]; 5 hours, ITT): (31.4) %
- Pain relief score Some (2), % ([1]; 5 hours, ITT): (9.8) %
- Pain relief score A Little (1), % ([1]; 6 hours, ITT): (2.0) %
- Pain relief score A Lot (3), % ([1]; 6 hours, ITT): (37.3) %
- Pain relief score Complete (4), % ([1]; 6 hours, ITT): (17.6) %
- Pain relief score None (0), % ([1]; 6 hours, ITT): (37.3) %
- Pain relief score Some (2), % ([1]; 6 hours, ITT): (5.9) %
- Pain relief score A Lot (3), % ([1]; 7 hours, ITT): (43.1) %
- Pain relief score Complete (4), % ([1]; 7 hours, ITT): (13.7) %
- Pain relief score None (0), % ([1]; 7 hours, ITT): (41.2) %
- Pain relief score Some (2), % ([1]; 7 hours, ITT): (2.0) %
- Pain relief score A Lot (3), % ([1]; 8 hours, ITT): (41.2) %
- Pain relief score Complete (4), % ([1]; 8 hours, ITT): (13.7) %
- Pain relief score None (0), % ([1]; 8 hours, ITT): (41.2) %
- Pain relief score Some (2), % ([1]; 8 hours, ITT): (3.9) %
- Time to peak pain relief, Hazard ratio ([1]; Cox proportional hazards model, vs placebo, ITT): 1.8
- Peak pain relief: A Little (1) ([1]; ITT): (11.8) %
- Peak pain relief: A Lot (3) ([1]; ITT): (47.1) %
- Peak pain relief: Complete (4) ([1]; ITT): (21.6) %
- Peak pain relief: None (0) ([1]; ITT): (7.8) %
- Peak pain relief: Some (2) ([1]; ITT): (11.8) %
- Time to peak pain relief: subjects analyzed ([1]; ITT): (58.8) %
- Time to peak pain relief: subjects censored ([1]; ITT): (41.2) %
- TOTPAR-4, Mean ([1]; ITT population): 7.152
- TOTPAR-4, Median ([1]; ITT population): 8.750
- Time to peak pain relief, Mean ([1]; Kaplan-Meier estimate, ITT): 3.3 h
- Time to peak pain relief, Q25 ([1]; Kaplan-Meier estimate, ITT): 1.50 h
- Time to peak pain relief, Q50 ([1]; Kaplan-Meier estimate, ITT): 3.00 h
- Time to peak pain relief, Q75 ([1]; Kaplan-Meier estimate, ITT): 5.00 h
- TOTPAR-8, LS mean ([1]; Model 1 (primary): ANCOVA, baseline pain intensity as only covariate, ITT): 14.822
- TOTPAR-8, LS mean difference vs placebo ([1]; Model 1 (primary), ITT): 11.803
- TOTPAR-8, LS mean ([1]; Model 2: baseline pain intensity, gender and surgical trauma rating as covariates, ITT): 14.797
- TOTPAR-8, LS mean difference vs placebo ([1]; Model 2, ITT): 11.864
- TOTPAR-8, Median ([1]; Overall, ITT population): 19.250
- TOTPAR-8, Mean ([1]; Overall, ITT population, single oral dose (celecoxib 400 mg)): 14.858
- TOTPAR-8, Mean ([1]; Site 50048, ITT population): 15.524
- TOTPAR-8, Median ([1]; Site 50048, ITT population): 20.500
- TOTPAR-8, Mean ([1]; Site 50053, ITT population): 14.021
- TOTPAR-8, Median ([1]; Site 50053, ITT population): 14.625
- TOTPAR-8, Mean ([1]; Site 50054, ITT population): 14.639
- TOTPAR-8, Median ([1]; Site 50054, ITT population): 20.750
- Pain relief score A Little (1), % ([1]; […], ITT): (17.6) %
- Pain relief score A Lot (3), % ([1]; […], ITT): (31.4) %
- Pain relief score Complete (4), % ([1]; […], ITT): (3.9) %
- Pain relief score None (0), % ([1]; […], ITT): (17.6) %
- Pain relief score Some (2), % ([1]; […], ITT): (29.4) %
- Time point from which pain relief scores were statistically significantly more favorable than placebo ([1]; onward after Time 0): ≥ 45 min
- Patient's global evaluation of study drug: Excellent, % [2]: (15.7) %
- Patient's global evaluation of study drug: Fair, % [2]: (17.6) %
- Patient's global evaluation of study drug: Good, % [2]: (19.6) %
- Patient's global evaluation of study drug: Poor, % [2]: (11.8) %
- Patient's global evaluation of study drug: Very Good, % [2]: (35.3) %
